Tests used:
liver cancer cells = conditions: cited from earlier work
[1] = test system: recurrence of hepatocellular carcinoma; experiment: Clinical test of recurrence of hepatocellular carcinoma after radical treatment in HCV-positive subjects (dynamic CT every 12 weeks, log-rank test); format: in vivo, human; conditions: for 50% Recurrence free interval / 75% Recurrence free interval: peroral, 96 weeks, in combination with branched-chain amino acid preparation
Procedure: Peretinoin produced through a known method was used as an acyclic retinoid. A commercial preparation containing isoleucine, leucine, and valine in combination was used as a branched-chain amino acid.
Forty-six subjects (age: 49 to 80) were tested. […] As a preparation containing a branched-chain amino acid, Aminoleban (registered trademark) EN combination powder or Livact (registered trademark) combination granules were administered in a specific amount during the test period. The daily dose of Aminoleban was 150 g (the daily dose including L-isoleucine (5.7675 g), L-leucine (6.111 g), and L-valine (4.806 g)), and that of Livact was 12.45 g (the daily dose including L-isoleucine (2.856 g), L-leucine (5.712 g), and L-valine (3.432 g)). As an acyclic retinoid, peretionin, was administered to the subjects in combination with the branched-chain amino acid. The subjects were divided into the following groups:
1: peretinoin 600 mg (daily dose, the same applies hereinafter) combination group: 18 subjects (male: 11, female: 7),
2: peretinoin 300 mg combination group: 15 subjects (male: 9, female: 6), and
3: branched-chain amino acid sole administration group: 13 subjects (male: 8, female: 5).
The daily dose of peretinoin was divided into two portions. On each day during 96 weeks after start of the test, peretinoin was perorally administered after meal.
Radical curing and recurrence of hepatocellular carcinoma were confirmed through dynamic CT measured every 12 weeks after the start of the test. The combinatory effect on cumulative recurrence free rate was evaluated through the log-rank test.

[2] = test system: recurrence of hepatocellular carcinoma; conditions: clinical study, cited from earlier work
[3] = peretinoin 300 mg daily, 15 HCV-positive subjects
[4] = peretinoin 600 mg daily, 18 HCV-positive subjects

Row | Compound | apoptosis of liver cancer cells (liver cancer cells) | 50% Recurrence free interval [1, 3] [days] | 75% Recurrence free interval [1, 3] [days] | extension of 75% recurrence free interval compared with the sole branched-chain amino acid administration group ([1]; peretinoin 300 mg in combination with branched-chain amino acid) [days] | cumulative recurrence free rate (FIG. 1) ([1]; peretinoin 600 mg and 300 mg combination groups with branched-chain amino acid) | cumulative recurrence free rate compared with the sole branched-chain amino acid administration group ([1]; peretinoin 600 mg combination group, Log-rank test) | 50% Recurrence free interval [1, 4] [days] | 75% Recurrence free interval [1, 4] [days] | extension of 75% recurrence free interval compared with the sole branched-chain amino acid administration group ([1]; peretinoin 600 mg in combination with branched-chain amino acid) [days] | extension of 50% recurrence free interval compared with the sole branched-chain amino acid administration group ([1]; peretinoin and branched-chain amino acid combination groups (600 mg and 300 mg)) | hepatocellular carcinoma recurrence rate ([1]; peretinoin in combination with branched-chain amino acid) | liver disorders / adverse side effects [2] | recurrence of hepatocellular carcinoma after radical treatment ([2]; long-term administration for one year)
1 | CC(C)=CCC/C(C)=C/CC/C(C)=C/CC/C(C)=C/C(=O)O [geranylgeranoic acid] | induce apoptosis | – | – | – | – | – | – | – | – | – | – | – | –
2 | CC(C)=CCC/C(C)=C/CC/C(C)=C/C=C/C(C)=C/C(=O)O [peretinoin, (2E,4E,6E,10E)-3,7,11,15-tetramethylhexadeca-2,4,6,10,14-pentaenoic acid] | – | >730 | 415 | 227 | remarkable improvement | significantly improved | >730 | 705 | 517 | more than double | reduce | substantially no liver disorders | significantly inhibited

Reference: patent US8853273B2, “Medicinal agent for prevention and/or treatment of hepatocellular carcinoma” (Kowa Co., Ltd., priority 2010, dated 2014)
